Values of other authors in US20230355643A1, “SOLVENT DELIVERY SYSTEM FOR TOPICAL DELIVERY OF ACTIVE AGENTS” (Timber Pharmaceuticals, Inc., priority 2019, published 2023).

settings: log10 of organic solvent (such as octanol)/aqueous solvent partition coefficient

| Compound | logP |
| --- | --- |
| O=C(O)c1cc(-c2ccc(F)cc2F)ccc1O [diflunisal] | 4.44 |
| Clc1ccc(COC(Cn2ccnc2)c2ccc(Cl)cc2Cl)cc1 (stereo not drawn) [econazole] | ~5.5 |
| C=C1/C(=C\C=C2/CCC[C@]3(C)[C@@H]([C@H](C)/C=C/[C@@H](O)C4CC4)CC[C@@H]23)C[C@@H](O)C[C@@H]1O [calcipotriol] | ~3.84 |
| CC(C)(C)c1ccc(C(=O)CCCN2CCC(OC(c3ccccc3)c3ccccc3)CC2)cc1 [ebastine] | 6.96 |
| CC(C(=O)O)c1cccc(Oc2ccccc2)c1 (stereo not drawn) [fenoprofen] | ~3.1 |
| CN1CCC[C@@H]1CCO[C@](C)(c1ccccc1)c1ccc(Cl)cc1 [clemastine] | ~5.2 |
| ivermectin | ~5.83 |
| CN(C)CCC(c1ccc(Br)cc1)c1ccccn1 (stereo not drawn) [brompheniramine] | 3.4 |
| Cc1ccc(-c2ncc(Cl)cc2-c2ccc(S(C)(=O)=O)cc2)cn1 [etoricoxib] | ~3.7 |
| CN(C)CCC(c1ccc(Cl)cc1)c1ccccn1 (stereo not drawn) [chlorpheniramine] | ~3.38 |

Second part, the compound after the results:

| logP | Compound |
| --- | --- |
| ~4.27 | COc1ccc2c(c1)c(CC(=O)O)c(C)n2C(=O)c1ccc(Cl)cc1 [indometocin] |
| ~3.06 | CN1C(C(=O)Nc2ccccn2)=C(O)c2ccccc2S1(=O)=O [piroxicam] |
| ~5.6 | CCOC(=O)c1ccc(C#Cc2ccc3c(c2)C(C)(C)CCS3)nc1 [tazarotene, ethyl 6-[2-(4,4-dimethyl-2,3-dihydrothiochromen-6-yl)ethynyl]pyridine-3-carboxylate] |
| ~6.1 | Clc1ccc(COC(Cn2ccnc2)c2ccc(Cl)cc2Cl)c(Cl)c1 (stereo not drawn) [miconazole] |
| ~4.16 | CC(C(=O)O)c1ccc(-c2ccccc2)c(F)c1 (stereo not drawn) [flurbiprofen] |
| ~5.12 | Cc1cccc(Nc2ccccc2C(=O)O)c1C [mefenamic acid] |
| ~3.44 | O=C(Oc1ccccc1C(=O)O)c1ccccc1O [salsalate] |
| ~6.76 | texaphyrin |
| ~3,12 | CC(C(=O)O)c1cccc(C(=O)c2ccccc2)c1 (stereo not drawn) [ketoprofen] |
| ~3.32 | Cc1onc(-c2ccccc2)c1-c1ccc(S(N)(=O)=O)cc1 [valdecoxib] |
| ~5.84 | Clc1ccc(CO/N=C(\Cn2ccnc2)c2ccc(Cl)cc2Cl)c(Cl)c1 [oxiconazole] |
